Results: article PMC9501172, “Gallic Acid Alkyl Esters: Trypanocidal and Leishmanicidal Activity, and Target Identification via Modeling Studies” (Molecules, 2022)
In brackets after ≈: the same amount, converted by molar mass. Where two headings read alike, the source gives them in different places.

Key:
HL-60 / T. brucei = experiment: Selectivity: ratio of cytotoxic to trypanocidal activity; assay type: cell-based, Trypanosoma brucei; settings: for GI50 Ratio: GI50(HL-60)/GI50(T. brucei); for MIC Ratio: MIC(HL-60)/MIC(T. brucei)
Protocol: (§1) Trypanocidal, leishmanicidal, and cytotoxic activities of gallic acid alkyl esters were determined with bloodstream forms of T. brucei (clone 427-221a), promastigotes of L. major (strain MHOM/IL/81/Friedlin [51]), and human myeloid HL-60 cell, respectively. The viability of cells was evaluated with the vital dye resazurin as previously described with some modifications. Cells were seeded in 96-well plates in a final volume of 200 μL Baltz medium (T. brucei bloodstream forms and HL-60 cells) or Schneider’s insect medium (L. major promastigotes) supplemented with 16.7% and 10% fetal bovine serum, respectively. Test compounds were assayed at tenfold dilutions starting from 100 μM down up to 100 nM in the presence of 0.9% DMSO. Wells containing medium with 0.9% DMSO alone served as controls. The initial cell densities were 1 × 10^4/mL for T. brucei bloodstream forms, 2.5 × 10^5/mL for L. major promastigotes, and 5 × 10^4/mL for HL-60 cells. The cultures were incubated at 37 °C (T. brucei bloodstream forms and HL-60 cells) and 27 °C (L. major promastigotes) in a humidified atmosphere containing 5% CO2. After 24 h of incubation, 20 µL of a 0.5 mM resazurin solution prepared in sterile PBS was added to each well, and the cultures were incubated for another 48 h. Then, the absorbance of each well was read on a BioTek ELx808 microplate reader using a test wavelength of 570 nm and a reference wavelength of 630 nm. The 50% growth inhibition (GI50) value, i.e., the concentration of a compound necessary to reduce the growth rate of cells by 50% compared to the control, was determined by linear interpolation. The minimum inhibitory concentration (MIC) value, i.e., the concentration of a compound at which all cells were killed, was determined microscopically.

[1] = system: human myeloid HL-60 cells; experiment: General cytotoxicity, resazurin viability assay; assay type: cell-based; settings: for GI50 / MIC: Homo sapiens; for GI50: HL-60, 72 h, resazurin, 24 h + 48 h; for MIC: concentration at which all cells were killed, determined microscopically; for cytotoxicity against the human cells: HL-60, in words
Protocol: as §1

[2] = system: bloodstream forms of T. brucei; experiment: Trypanocidal activity, resazurin viability assay; assay type: cell-based, Trypanosoma brucei; settings: for GI50 / MIC: Trypanosoma brucei; for MIC: concentration at which all cells were killed, determined microscopically
Protocol: as §1

[3] = system: murine B-lymphoma WEHI-231 cells; design: method as in PMID 9466819; settings: cited from earlier work
[4] = system: T. brucei bloodstream forms; experiment: Motility assay with glucose or glycerol as substrate; assay type: cell-based, Trypanosoma brucei; settings: 55 mM glucose, compound 200 μM, PBS
Protocol: A culture of bloodstream forms of T. brucei was divided into two equal portions (9 mL) and collected by centrifugation. The cell pellets were resuspended in 1 mL PBS containing 55 mM glucose or 55 mM glycerol. After subsequent centrifugation, the cell pellets were resuspended again in PBS/55 mM glucose and PBS/55 mM glycerol, respectively, and the cell density was adjusted to 2 × 10^6/mL. Then, 100 μL of trypanosomes were mixed with 100 μL PBS/55 mM glucose or 100 μL PBS/55 mM glycerol containing gallic acid alkyl esters at a concentration of 400 μM, giving a final concentration of the esters in the assay of 200 μM. The final concentration of DMSO in each test was 0.9%. The motility of the trypanosomes was examined under the microscope.

[5] = system: promastigotes of L. major; experiment: Leishmanicidal activity, resazurin viability assay; assay type: cell-based, Leishmania major; settings: for inhibition at 100 µM: read-out: Growth Inhibition (% at 100 μM); for leishmanicidal activity: in words; for GI50: values in brackets
Protocol: as §1

T. brucei = settings: cited from earlier work
Vero cells [6] = system: Vero cells; design: method as in PMID 18797755; settings: cited from earlier work
Vero cells [7] = experiment: Cytotoxicity against Vero cells quoted from the literature; assay type: cell-based; settings: for times Vero cells are less sensitive compared with HL-60 cells: GI50(Vero) vs GI50(HL-60); for selectivity: using the Vero cell cytotoxicity as the basis, relative to trypanocidal activity
[8] = 72 h, bloodstream forms clone 427-221a, resazurin, 24 h + 48 h, read-out: T. brucei GI50
[9] = bloodstream forms clone 427-221a
[10] = T. brucei bloodstream forms, GI50 expressed in μg/mL, read-out: GI50
[11] = trypanocidal activity of related phenolic esters

Structure (SMILES) | GI50 Ratio (HL-60 / T. brucei) | MIC Ratio (HL-60 / T. brucei) | GI50 [1] | MIC [1] | GI50 [2, 8] | MIC [2, 9] | Motility after 5 min [4] | MIC ([5]; Leishmania major) | inhibition at 100 µM ([5]; Leishmania major) | other results
Cc1ccc(C(=O)Nc2ccc(S(=O)(=O)O)c3cc(S(=O)(=O)O)cc(S(=O)(=O)O)c23)cc1NC(=O)c1cccc(NC(=O)Nc2cccc(C(=O)Nc3cc(C(=O)Nc4ccc(S(=O)(=O)O)c5cc(S(=O)(=O)O)cc(S(=O)(=O)O)c45)ccc3C)c2)c1 [Suramin, reference compound] | >2500 | >100 | > 100 µM | > 100 µM | 0.04 µM | 1 µM (≈ 1.3 µg/mL) |  |  |  | times higher GI50 ratio than gallic acid alkyl esters 4, 5, and 6 (HL-60 / T. brucei): 100 times; times higher MIC ratio than gallic acid alkyl esters 4, 5, and 6 (HL-60 / T. brucei): 10 times
CCCCCCCCCCCCOC(=O)c1cc(O)c(O)c(O)c1 [dodecyl gallate] |  |  |  |  |  |  |  |  |  | GI50 [3]: 1 µM
CC(C)CCOC(=O)c1cc(O)c(O)c(O)c1 [Compound 6, Gallic acid isopentyl ester] |  | >10 | 90.4 ± 21.6 µM | > 100 µM | ~3 µM | 10 µM (≈ 2.4 µg/mL) | + + + | 100 µM (≈ 24 µg/mL) | 45% | times less active compared with suramin ([2]; T. brucei bloodstream forms): 10–100 times; GI50 [2, 10]: 0.63 to 0.78 µg/mL
CC(C)CCOC(=O)C=Cc1ccc(O)c(O)c1 [caffeic acid isopentyl ester, 3,4-dihydroxycinnamic (caffeic) acid isopentyl ester] |  |  |  |  |  |  |  |  |  | GI50 (T. brucei; [11]): 1.24 µM
CCOC(=O)C=Cc1ccc(O)c(OC)c1 [ferulic acid ethyl ester, 3-methoxy-4-hydroxycinnamic (ferulic) acid ethyl ester] |  |  |  |  |  |  |  |  |  | GI50 (T. brucei; [11]): 110 µM
CCCCCCCCOC(=O)c1cc(O)c(O)c(O)c1 [octyl gallate] |  |  |  |  |  |  |  |  |  | GI50 [3]: 1.5 µM
COC(=O)c1cc(O)c(O)c(O)c1 [Compound 1, Gallic acid methyl ester] | >4.1 | >1 | > 100 µM | > 100 µM | 24.5 ± 4.5 µM | 100 µM (≈ 18.4 µg/mL) | + + + | > 100 µM | 2% | cytotoxicity against the human cells [1]: no cytotoxicity
CC(C)OC(=O)c1cc(O)c(O)c(O)c1 [Compound 3, Gallic acid isopropyl ester] | 10.5 | >1 | 87.9 ± 8.2 µM | > 100 µM | 8.4 ± 2.2 µM | 100 µM (≈ 21.2 µg/mL) | + + + | > 100 µM | 34% | 
CCOC(=O)c1cc(O)c(O)c(O)c1 [Compound 2, Gallic acid ethyl ester] | >3.6 | >1 | > 100 µM | > 100 µM | 27.9 ± 2.4 µM | 100 µM (≈ 19.8 µg/mL) | + + + | > 100 µM | 0% | cytotoxicity against the human cells [1]: no cytotoxicity; leishmanicidal activity [5]: no leishmanicidal activity
CCCCOC(=O)c1cc(O)c(O)c(O)c1 [Compound 5, Gallic acid butyl ester] |  | >10 | 74.8 ± 4.5 µM | > 100 µM | ~3 µM | 10 µM (≈ 2.26 µg/mL) | + + + | 100 µM (≈ 22.6 µg/mL) | 58% | GI50 (Vero cells [6]): 361 µM; times Vero cells are less sensitive compared with HL-60 cells (Vero cells [7]): 4.8 times; selectivity (Vero cells [7]): > 100; GI50 ([5]; Leishmania major): 62.4 µM; times less active compared with suramin ([2]; T. brucei bloodstream forms): 10–100 times; GI50 [2, 10]: 0.63 to 0.78 µg/mL
COCCOC(=O)c1cc(O)c(O)c(O)c1 [Compound 8, Gallic acid 2-methoxyethyl ester] | 17.7 | >1 | 99.2 ± 9.4 µM | > 100 µM | 5.6 ± 1.3 µM | 100 µM (≈ 22.8 µg/mL) | + + + | 100 µM (≈ 22.8 µg/mL) | 47% | melting point: 152 to 153 °C
CCCCCOC(=O)c1cc(O)c(O)c(O)c1 [Compound 7, Gallic acid pentyl ester] | >3.0 | >1 | > 100 µM | > 100 µM | 32.8 ± 0.9 µM | 100 µM (≈ 24 µg/mL) | + + + | > 100 µM | 0% | melting point: 94 to 96 °C; cytotoxicity against the human cells [1]: no cytotoxicity; leishmanicidal activity [5]: no leishmanicidal activity
O=C(/C=C/c1ccc(O)c(O)c1)OCCc1ccccc1 [caffeic acid phenethyl ester] |  |  |  |  |  |  |  |  |  | GI50 (T. brucei; trypanocidal activity): 0.046 µM
CCCOC(=O)c1cc(O)c(O)c(O)c1 [Compound 4, Gallic acid propyl ester] |  | >10 | 82 ± 8.2 µM | > 100 µM | ~3 µM | 10 µM (≈ 2.12 µg/mL) | + + + | 100 µM (≈ 21.2 µg/mL) | 61% | GI50 (Vero cells [6]): 713 µM; times Vero cells are less sensitive compared with HL-60 cells (Vero cells [7]): 8.7 times; selectivity (Vero cells [7]): > 100; GI50 ([5]; Leishmania major): 50.4 µM; times less active compared with suramin ([2]; T. brucei bloodstream forms): 10–100 times; GI50 [2, 10]: 0.63 to 0.78 µg/mL
O=C(O)c1cc(O)c(O)c(O)c1 [gallic acid, 3,4,5-trihydroxybenzoic acid] |  |  |  |  |  |  |  |  |  | GI50 (T. brucei; trypanocidal activity of the reactant): 14.2 µM
C[C@@H]1[C@H](O)[C@@H](C)/C=C/C=C/C=C/C=C/C=C/C=C/C=C/[C@H](O[C@@H]2O[C@H](C)[C@@H](O)[C@H](N)[C@@H]2O)C[C@@H]2O[C@](O)(C[C@@H](O)C[C@@H](O)[C@H](O)CC[C@@H](O)C[C@@H](O)CC(=O)O[C@H]1C)C[C@H](O)[C@H]2C(=O)O [Amphotericin B, reference compound] |  |  |  |  |  |  |  | 0.1 µM (≈ 0.0924 µg/mL) |  | inhibition at 10 µM ([5]; Leishmania major, at 10 μM, read-out: Growth Inhibition (%)): 100%; GI50 ([5]; Leishmania major): 0.04 µM
